Assay results: ChEMBL document CHEMBL5390272, “Discovery of a potent and selective human AC2 inhibitor based on 7-deazapurine analogues of adefovir” (Bioorg Med Chem, 2023)

Assays:
[1] = Inhibition of Bordetella pertussis Adenylate cyclase toxin in mouse J774.A1 cells preincubated for 5 hrs followed by ACT addition and measured after 30 mins by CatchPointcAMP immunoassay method; format: cell-based
[2] = Cytotoxicity against mouse J774.A1 cells assessed as cell viability at 10 uM incubated for 5 hrs by Cell Titer-Glo Luminescent Cell Viability assay relative to control; format: toxicity, cell-based; details: read-out: Activity
[3] = tested on: HEK293; experiment: Cytotoxicity against AC1 expressed HEK293 cells by CellTiter-Glo 2.0 assay relative to control; format: toxicity, cell-based; design: concentration or dose not given beside the values; details: human
[4] = biological target: Adenylate cyclase type 2 (Homo sapiens, UniProt Q08462); experiment: Inhibition of human adenylate cyclase 2 expressed in ACdelta 3/6 knockout HEK293 cells assessed as cyclic AMP accumulation incubated for 30 min followed by FSK stimulation by HTR-FRET assay; format: cell-based
Adenylate cyclase type 2, sequence (Q08462 whole entry): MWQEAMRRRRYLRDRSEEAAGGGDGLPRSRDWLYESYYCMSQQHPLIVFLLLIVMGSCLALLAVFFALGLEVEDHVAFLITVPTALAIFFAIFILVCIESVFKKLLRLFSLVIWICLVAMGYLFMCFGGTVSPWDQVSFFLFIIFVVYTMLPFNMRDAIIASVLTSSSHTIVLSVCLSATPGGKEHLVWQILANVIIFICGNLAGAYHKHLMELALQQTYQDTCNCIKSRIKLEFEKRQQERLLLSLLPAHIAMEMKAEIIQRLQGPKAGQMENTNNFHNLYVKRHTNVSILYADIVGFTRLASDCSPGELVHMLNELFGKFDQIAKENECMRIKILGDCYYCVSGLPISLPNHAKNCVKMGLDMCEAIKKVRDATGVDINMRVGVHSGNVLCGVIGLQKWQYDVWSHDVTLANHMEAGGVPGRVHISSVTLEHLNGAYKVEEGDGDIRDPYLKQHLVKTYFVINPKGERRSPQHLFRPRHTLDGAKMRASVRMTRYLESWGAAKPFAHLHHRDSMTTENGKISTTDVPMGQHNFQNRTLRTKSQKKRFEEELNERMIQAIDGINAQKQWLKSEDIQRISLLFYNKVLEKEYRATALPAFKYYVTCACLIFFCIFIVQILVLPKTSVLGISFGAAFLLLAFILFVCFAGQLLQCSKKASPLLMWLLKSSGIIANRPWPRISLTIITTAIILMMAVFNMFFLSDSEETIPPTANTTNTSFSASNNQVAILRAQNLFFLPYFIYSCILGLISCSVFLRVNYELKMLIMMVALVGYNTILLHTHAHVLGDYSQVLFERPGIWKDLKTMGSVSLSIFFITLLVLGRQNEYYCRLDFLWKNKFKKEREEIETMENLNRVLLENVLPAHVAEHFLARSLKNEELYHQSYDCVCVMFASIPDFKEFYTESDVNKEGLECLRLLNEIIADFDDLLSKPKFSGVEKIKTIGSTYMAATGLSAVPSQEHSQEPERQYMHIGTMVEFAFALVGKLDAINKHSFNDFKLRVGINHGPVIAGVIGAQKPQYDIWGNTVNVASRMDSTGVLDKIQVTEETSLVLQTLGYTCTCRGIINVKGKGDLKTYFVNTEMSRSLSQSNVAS

[5] = biological target: D(1A) dopamine receptor (Homo sapiens, UniProt P21728); experiment: Inhibition of human D1 receptor expressed in HEK293 cells assessed as cyclic AMP accumulation incubated for 1 hr in presence of dopamine by HTR-FRET assay; format: functional, cell-based
D(1A) dopamine receptor, sequence (P21728 whole entry): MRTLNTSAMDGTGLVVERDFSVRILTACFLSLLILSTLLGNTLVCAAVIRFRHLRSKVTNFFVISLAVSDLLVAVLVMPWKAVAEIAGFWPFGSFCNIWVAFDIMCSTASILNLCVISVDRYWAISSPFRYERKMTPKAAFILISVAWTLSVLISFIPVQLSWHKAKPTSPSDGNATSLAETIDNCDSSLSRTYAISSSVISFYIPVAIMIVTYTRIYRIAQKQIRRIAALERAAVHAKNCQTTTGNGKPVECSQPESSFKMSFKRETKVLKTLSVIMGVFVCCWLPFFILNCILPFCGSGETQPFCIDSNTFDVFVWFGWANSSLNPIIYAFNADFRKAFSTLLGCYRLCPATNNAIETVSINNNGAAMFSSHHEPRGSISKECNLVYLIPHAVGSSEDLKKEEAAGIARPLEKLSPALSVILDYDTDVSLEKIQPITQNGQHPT

[6] = tested on: NHDF; experiment: Cytotoxicity against human NHDF cells by CellTiter-Glo 2.0 assay; format: toxicity, cell-based
[7] = tested on: HL-60; experiment: Cytotoxicity against human HL-60 cells by CellTiter-Glo 2.0 assay; format: functional, cell-based
[8] = tested on: HeLa S3; experiment: Cytotoxicity against human HeLa S3 cells by CellTiter-Glo 2.0 assay; format: functional, cell-based
[9] = tested on: CCRF-CEM; experiment: Cytotoxicity against human CCRF-CEM cells by CellTiter-Glo 2.0 assay; format: functional, cell-based
[10] = tested on: HepG2; experiment: Cytotoxicity against human HepG2 cells by CellTiter-Glo 2.0 assay; format: functional, cell-based

## CC(C)OC(=O)[C@H](Cc1ccccc1)NP(=O)(COCCn1cc(-c2cccc(-c3noc(=O)[nH]3)c2)c2c(N)ncnc21)N[C@@H](Cc1ccccc1)C(=O)OC(C)C
[1]
  IC50: > 10 µM
[2]
  viability at 5 h, 10 µM: 114%
[3]
  Activity: 89%
[4]
  IC50: 4.45 µM
[5]
  IC50: > 10 µM
[6]
  IC50: > 10 µM
[7]
  IC50: 10 µM
[8]
  IC50: > 10 µM
[9]
  IC50: > 10 µM
[10]
  IC50: > 10 µM
